Measured values reported in patent US6413914B1, “Low foam N,N′-dialkylmalamide wetting agents” (Air Products and Chemicals, Inc., priority 2001, dated 2002).

Assays:
Format in all cases: physicochemical
[1] = Foaming properties, procedure based upon ASTM D 1173-53; details: for Initial Foam: foam height at completion of addition
Protocol: The foaming properties of aqueous solutions of N,N′-di-iso-pentyl DL-malamide (Ex 2) and N,N′-di-2-ethylhexyl DL-malamide (Ex 3), were examined using a procedure based upon ASTM D 1173-53. In this test, a 0.1 wt % aqueous mixture of the surfactant was prepared, any undissolved solids were filtered off, and the filtrate was added from an elevated glass pipette to a glass receiver containing the same filtrate. The foam height was measured at the completion of the addition (“Initial Foam Height”) and the time required for the foam to dissipate at the air-liquid interface (“Time to 0 Foam”) was recorded. This test provides a comparison between the foaming characteristics of various surfactants. In general, in coatings, inks, adhesives, fountain solution, agricultural, and electronic chemical formulations, foam is undesirable because it complicates handling and can lead to coating and print defects, and to inefficient application of agricultural materials or electronic chemicals.
The foaming properties of 0.1 wt % solutions of two representative nonionic surfactants, a commercial nonylphenol 15 mole ethoxylate surfactant and a commercial C8 alkyl glucoside surfactant were examined using the procedure based upon ASTM D 1173-53.

[2] = Equilibrium surface tension, Wilhelmy plate method, saturated solutions in distilled water; details: for Limiting EST: saturated solution in distilled water, undissolved material filtered off, Wilhelmy plate, 25° C.
Protocol: (§1) Saturated solutions of the materials of Examples 1-3 in distilled water were prepared. After shaking the solutions for ˜24 hours, the undissolved material was removed via filtration. Equilibrium surface tension data were obtained using the Wilhelmy plate method, described in L. Wilhelmy, Ann. Phys. 1863, 119, 177.
The limiting surface tensions represent the lowest surface tensions in water which can be achieved for a given surfactant regardless of the amount of surfactant used and is used to evaluate the effectiveness of a surfactant. Lower surface tensions would allow for the elimination of defects upon application of a formulation onto low energy surfaces.

[3] = Concentration of surfactant in filtered saturated solution in distilled water; details: shaken ~24 hours
Protocol: as §1

[4] = 0.1 wt % aqueous mixture, filtered

| Foam after 5 min [1, 4] [cm] | Initial Foam [1, 4] [cm] | Limiting EST [2] [dyne/cm] | lowering the equilibrium surface tension of water (in words) [2] | Concentration of Surfactant in Solution [3] [wt. %] | Time to zero foam [1, 4] | Compound | Time to zero foam ([1]; 0.1 wt % solution) [min] |
| --- | --- | --- | --- | --- | --- | --- | --- |
| 1.0 | 1.9 |  |  |  |  | C8 Alkyl glucoside [reference compound] | 37 |
| 0 | 1.5 | 38.5 | particularly effective | <0.1 | ˜2 sec | CCCCC(CC)CNC(=O)CC(O)C(=O)NCC(CC)CCCC (racemic) [Di-2-ethylhexyl DL-malamide (Ex 3), N,N′-Di-2-ethylhexyl DL-malamide] |  |

The remaining lines, values behind:

| Compound | Foam after 5 min [1, 4] [cm] | Initial Foam [1, 4] [cm] | Limiting EST [2] [dyne/cm] | lowering the equilibrium surface tension of water (in words) [2] | Concentration of Surfactant in Solution [3] [wt. %] | Time to zero foam [1, 4] | Time to zero foam ([1]; 0.1 wt % solution) [min] |
| --- | --- | --- | --- | --- | --- | --- | --- |
| Nonylphenol 15 mole ethoxylate [reference compound] | 4 | 5 |  |  |  |  | >5 |
| CC(C)CCNC(=O)CC(O)C(=O)NCCC(C)C (racemic) [Di-isopentyl DL-malamide (Ex 2), N,N′-Di-iso-pentyl DL-malamide] | 0 | 1.4 | 42.9 | particularly effective | <0.4 | 0.583 min |  |
| CC(C)CNC(=O)CC(O)C(=O)NCC(C)C (racemic) [Di-isobutyl DL-malamide (Ex 1), N,N′-Di-iso-butyl DL-malamide] |  |  | 51.3 |  | <1.0 |  |  |
